These results are taken from patent publication US20040023884A1, “Biologically active peptides from functional domains of bactericidal/permeability-increasing protein and uses thereof” (priority 1993, published 2004).

Square brackets hold non-standard residues; d marks the D form. Ends that are not written are not given here. 1Nal = N[C@@H](Cc1cccc2ccccc12)C(=O)O; d1Nal = N[C@H](Cc1cccc2ccccc12)C(=O)O; Pal = not defined here

For one assay, the system named is Staphylococcus aureus. Description: Radial diffusion bactericidal assay, Staphylococcus aureus. In kind it is cell-based. To be noted: radial diffusion; PROBIT analysis; S. aureus.
Assay [1] in a line: 3H-heparin binding assay (affinity and capacity). Conditions: for Heparin Capacity: heparin bound at saturation; for Kd: read-out: Heparin Affinity. The method, then:
Briefly, each fragment was added to wells of a 96-well microtiter plate having a polyvinylidene difluoride membrane (Immunobilon-P, Millipore, Bedford, Mass.) disposed at the bottom of the wells. […] Positive control wells contained varying amounts of rBPI23. […] DuPont-NEN, Wilmington, Del.) were made in the blocking buffer and incubated in the BPI peptide-containing wells for one hour at 4° C. The unbound heparin was aspirated and the wells were washed three times with blocking buffer, dried and removed for quantitation in a liquid scintillation counter (Model 1217, LKB, Gaithersburg, Md.). Although BSA in the blocking buffer did show a low affinity and capacity to bind heparin, this was considered physiologically irrelevant and the background was routinely subtracted from the test compound signal.

In assay [2] the test system is E. coli 0111:B4 (smooth) bacteria. The assay can be described thus: Radial diffusion bactericidal assay, E. coli 0111:B4. In kind it is cell-based. To be noted: radial diffusion; PROBIT analysis; E. coli O111:B4 (smooth).
For assay [3], the system named is rough mutant E. coli J5 bacteria. Description: Radial diffusion bactericidal assay, E. coli J5. The assay is classed as cell-based. Conditions: radial diffusion; for pmol added to well to achieve a 30 mm^2 bactericidal zone, E. coli J5: PROBIT analysis, E. coli J5 (rough). The protocol: BPI proteolytic fragments produced according to Example 1 were screened for bactericidal effects using rough mutant E. coli J5 bacteria in a radial diffusion assay. Specifically, an overnight culture of E. coli J5 was diluted 1:50 into fresh tryptic soy broth and incubated for 3 hours at 37° C. to attain log phase growth of the culture. Bacteria were then pelleted at 3,000 rpm for 5 minutes in a Sorvall RT6000B centrifuge (Sorvall Instruments, Newton, Conn.). 5 mL of 10 mM sodium phosphate buffer (pH 7.4) was added and the preparation was re-pelleted. […] The bacteria were diluted to 4×10^6 CFU/mL in 10 mL of molten underlayer agarose (at approximately 45° C.) and inverted repeatedly to mix in 15 mL polypropylene tubes conventionally used for this purpose.
The entire contents of such tubes were then poured into a level square petri dish and distributed evenly by rocking the dish side-to-side. […] A series of wells were then punched into the hardened agarose using a sterile 3 mm punch attached to a vacuum apparatus. The punch was sterilized with 100% alcohol and allowed to air dry prior to use to avoid contaminating the bacterial culture.
5 or 10 μL of each of the BPI fragments were carefully pipetted into each well. As a negative control, dilution buffer (pH 8.3) was added to a separate well, and rBPI23 at concentrations of 5 μg/mL and 1 μg/mL were also added as positive controls. Each plate was incubated at 37° C. for 3 hours, and then 10 mL of molten overlayer agarose (at approximately 45° C.) was added into the level petri dish, allowed to harden and incubated overnight at 37° C. […] The bacterial zones were measured with a micrometer.

For the substance ADADIKISGICWKAQKRFLK [BPI.71], in the assay on Staphylococcus aureus, the “pmol added to well to achieve a 30 mm^2 bactericidal zone, S. aureus” value (shortened to “pmol added to well … S. aureus”) was “b (no detectable activity up to 5 μg/well)”. Also, in assay [1], the “Heparin Capacity” value is recorded as 158.9 ng and the Kd came out at 75.6 nM. The “pmol added to well to achieve a 30 mm^2 bactericidal zone, E. coli O111:B4” value (shortened to “pmol added to well … E. coli O111:B4”) in assay [2] is reported as “b (no detectable activity up to 5 μg/well)”. The “pmol added to well to achieve a 30 mm^2 bactericidal zone, E. coli J5” value (“pmol added to well … E. coli J5” for short) in assay [3] is reported as 2,296.94 pmol.
In the case of CIKISGKWKAQKRFLK [BPI.58], the “pmol added to well … S. aureus” value in the assay with Staphylococcus aureus is “b (no detectable activity up to 5 μg/well)”. Further, in assay [1], the “heparin binding capacity (in words)” value is listed as “extremely high heparin capacity”, the “Heparin Capacity” value is 231.2 ng and the Kd was 194 nM. Further, the “pmol added to well … E. coli O111:B4” value in assay [2] is on record as “b (no detectable activity up to 5 μg/well)”. In assay [3] (E. coli J5), the “bactericidal activity (in words)” value is recorded as “highly bactericidal”. The “pmol added to well … E. coli J5” value in assay [3] is recorded as 1,050.11 pmol.
Consider IKISGKWKAQKRWLK [BPI.141], for which the “pmol added to well … S. aureus” value in the assay on Staphylococcus aureus was “b (no detectable activity up to 5 μg/well)”. The “pmol added to well … E. coli O111:B4” value in assay [2] was “b (no detectable activity up to 5 μg/well)”. The “pmol added to well … E. coli J5” value in assay [3] was 2,809.51 pmol.
As to “IKISGKWKAWKRAβ-(1-naphthyl)LKK (IKISGKWKAWKR[1Nal]LKK) [BPI.105]”, the “pmol added to well … S. aureus” value in the assay on Staphylococcus aureus is on record as 6,260.97 pmol. Besides, in assay [2], the “pmol added to well … E. coli O111:B4” value amounted to 206.98 pmol. The “pmol added to well … E. coli J5” value in assay [3] worked out at 65.35 pmol.
With “KSKVGA2-β-(1-naphthyl)LIQLFHKK (KSKVG[1Nal]LIQLFHKK; not fully specified; printed as KSKVGA2-β-(1-naphthyl)LIQLFHKK) [BPI.130]”, the “pmol added to well … S. aureus” value with Staphylococcus aureus is listed as “b (no detectable activity up to 5 μg/well)”. For the same substance, in assay [2], the “pmol added to well … E. coli O111:B4” value is reported as 4,377.92 pmol. In assay [3], the “pmol added to well … E. coli J5” value is listed as 325.75 pmol.
In the same order, the values of “KSKVGA(pyridyl)LIQLFHKK (KSKVG[Pal]LIQLFHKK; reading uncertain; also: printed as KSKVGA(pyridyl)LIQLFHKK) [BPI.132]” are “b (no detectable activity up to 5 μg/well)”, “b (no detectable activity up to 5 μg/well)” and 4,505.79 pmol.
Take “KSKVGAD-2-β-(1-naphthyl)LIQLFHKK (KSKVG[d1Nal]LIQLFHKK; not fully specified) [BPI.131]”: the “pmol added to well … S. aureus” value in the assay with Staphylococcus aureus was “b (no detectable activity up to 5 μg/well)”. Further, the “pmol added to well … E. coli O111:B4” value in assay [2] is reported as “b (no detectable activity up to 5 μg/well)”. For the same substance, the “pmol added to well … E. coli J5” value in assay [3] is recorded as 1,438.21 pmol.
Take “KSKVGAD-β-(1-naphthyl)LIQLFHKK (KSKVG[d1Nal]LIQLFHKK) [BPI.129]”: in the assay with Staphylococcus aureus, the “pmol added to well … S. aureus” value is “b (no detectable activity up to 5 μg/well)”. Also, the “pmol added to well … E. coli O111:B4” value in assay [2] was “b (no detectable activity up to 5 μg/well)”. Also, the “pmol added to well … E. coli J5” value in assay [3] is recorded as 1,685.10 pmol.
KSKVGFDLIQLPHKK [BPI.128]: in the assay on Staphylococcus aureus, the “pmol added to well … S. aureus” value is given as “b (no detectable activity up to 5 μg/well)”. Also, the “pmol added to well … E. coli O111:B4” value in assay [2] was “b (no detectable activity up to 5 μg/well)”. Besides, the “pmol added to well … E. coli J5” value in assay [3] is on record as 2,271.14 pmol.
Regarding KSKVGFLIQLFHKK [BPI.127], the “pmol added to well … S. aureus” value with Staphylococcus aureus is “b (no detectable activity up to 5 μg/well)”. In addition, the “pmol added to well … E. coli O111:B4” value in assay [2] is reported as “b (no detectable activity up to 5 μg/well)”. Besides, in assay [3], the “pmol added to well … E. coli J5” value is on record as 406.01 pmol.
For “KSKVGW(p-amino)LIFLFHKK (KSKVG[p‑amino‑tryptophan]LIFLFHKK) [BPI.123]”, in the assay on Staphylococcus aureus, the “pmol added to well … S. aureus” value is “b (no detectable activity up to 5 μg/well)”. The “pmol added to well … E. coli O111:B4” value in assay [2] is 6,651.23 pmol. For the same substance, the “pmol added to well … E. coli J5” value in assay [3] was 247.20 pmol.
Regarding KSKVGWDLIQLFHKK [BPI.126], in the assay on Staphylococcus aureus, the “pmol added to well … S. aureus” value was “b (no detectable activity up to 5 μg/well)”. In addition, the “pmol added to well … E. coli O111:B4” value in assay [2] is “b (no detectable activity up to 5 μg/well)”. Besides, in assay [3], the “pmol added to well … E. coli J5” value is 1,979.97 pmol.
Regarding KSKVGWLIQFFHKK [BPI.113], in the assay with Staphylococcus aureus, the “pmol added to well … S. aureus” value is listed as “b (no detectable activity up to 5 μg/well)”. Moreover, the “pmol added to well … E. coli O111:B4” value in assay [2] is on record as 8,671.73 pmol. The “pmol added to well … E. coli J5” value in assay [3] was found to be 270.66 pmol.
For the substance “KSKVGWLIQLAβ-(1-naphthyl)HKK (KSKVGWLIQL[1Nal]HKK) [BPI.109]”, the “pmol added to well … S. aureus” value in the assay on Staphylococcus aureus was “b (no detectable activity up to 5 μg/well)”. Besides, in assay [2], the “pmol added to well … E. coli O111:B4” value was 44,875.41 pmol. Also, the “pmol added to well … E. coli J5” value in assay [3] was found to be 308.60 pmol.
In the case of “KSKVGWLIQLFAβ-(1-naphthyl)KK (KSKVGWLIQLF[1Nal]KK) [BPI.110]”, the “pmol added to well … S. aureus” value with Staphylococcus aureus is listed as “b (no detectable activity up to 5 μg/well)”. For the same substance, in assay [2], the “pmol added to well … E. coli O111:B4” value was 7,952.04 pmol. Also, the “pmol added to well … E. coli J5” value in assay [3] is 812.33 pmol.
“KSKVGWLIQLFHKAβ-(1-naphthyl) (KSKVGWLIQLFHK[1Nal]) [BPI.111]”: the “pmol added to well … S. aureus” value with Staphylococcus aureus is given as 12,467.42 pmol. Also, in assay [2], the “pmol added to well … E. coli O111:B4” value is on record as 7,232.08 pmol. For the same substance, the “pmol added to well … E. coli J5” value in assay [3] amounted to 969.00 pmol.
In the same order, the values of KSKVGWLIQLFHKW [BPI.108] are 1,413,131,872.57 pmol, 306,965.11 pmol and 661.05 pmol.
In the same order, the values of KSKVGWLIQLFWKK [BPI.107] are “b (no detectable activity up to 5 μg/well)”, 4,665.64 pmol and 384.67 pmol.
As for KSKVGWLISLFHKK [BPI.104], the “pmol added to well … S. aureus” value in the assay with Staphylococcus aureus is 27,933.64 pmol. Also, the “pmol added to well … E. coli O111:B4” value in assay [2] is 1,376.42 pmol. Besides, the “pmol added to well … E. coli J5” value in assay [3] stood at 385.85 pmol.
Regarding KSKVGWLITLFHKK [BPI.106], the “pmol added to well … S. aureus” value in the assay with Staphylococcus aureus is “b (no detectable activity up to 5 μg/well)”. Further, the “pmol added to well … E. coli O111:B4” value in assay [2] is 3,413.80 pmol. In addition, the “pmol added to well … E. coli J5” value in assay [3] is recorded as 427.12 pmol.
In the same order, the values of KSKVGWLIYLFHKK [BPI.125] are “b (no detectable activity up to 5 μg/well)”, 11,306.79 pmol and 428.85 pmol.
In the same order, the values of “KSKVKAβ-(1-naphthyl)LIQLFHKK (KSKVK[1Nal]LIQLFHKK) [BPI.116]” are “b (no detectable activity up to 5 μg/well)”, 37,539.59 pmol and 73.82 pmol.
Regarding KSKVKWLIQLWHKK [BPI.124], the “pmol added to well … S. aureus” value in the assay with Staphylococcus aureus is “b (no detectable activity up to 5 μg/well)”. Besides, in assay [2], the “pmol added to well … E. coli O111:B4” value was 3,916.32 pmol. Moreover, the “pmol added to well … E. coli J5” value in assay [3] amounted to 91.23 pmol.
The like results for KWQLRSKGKIKIFKA [BPI.114] were, in that order, “b (no detectable activity up to 5 μg/well)”, “b (no detectable activity up to 5 μg/well)” and 1,696.20 pmol.
